Where two headings read alike, the source gives them in different places.

Holding throughout (experiment): Postemergence herbicide evaluation, percent reduction in plant size vs untreated control, 21 days after treatment
In one test the test system is Amaranthus rudis (AMATA). The class given is in vivo, Amaranthus rudis (tall water hemp). Particulars: Amaranthus tuberculatus, post-emergence, 504 h, AMATA, postemergence, read-out: Control/Injury; for pest or weed control at 140 g/ha: rate 140 g ae/ha; for pest or weed control at 280 g/ha: rate 280 g ae/ha. Summed up: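 Growth-reduction values are percent decrease in plant size relative to untreated plants, scored 21 days post-application. Amaranthus rudis (2-8 leaves) received postemergence sprays at 140 or 280 g ae/ha, 187 L/ha, in a mixed acetone/DMSO/water/isopropanol carrier with crop oil concentrate. Greenhouse conditions were 25-28° C, 50-60% RH; 3-4 randomized replicates.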

Test [1] concerns Amaranthus palmeri (AMAPA). Format: in vivo, Amaranthus palmeri (Palmer amaranth). The following applies: post-emergence, 504 h, postemergence, read-out: Control/Injury; for pest or weed control at 140 g/ha: rate 140 g ae/ha; for pest or weed control at 280 g/ha: rate 280 g ae/ha. The gist of the method: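 Percent reduction in plant size relative to untreated plants, measured 21 days after track-sprayer application (187 L/ha) of 140 or 280 g ae/ha to Amaranthus palmeri at the 2 to 8 leaf stage. Randomized complete block, 3 or 4 replicates, greenhouse at 25 to 28° C; spray solution acetone/DMSO with isopropanol, water and crop oil concentrate.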

Test [2] deals with Conyza canadensis (L.) (ERICA). Format: in vivo, Conyza canadensis (L.) (Horseweed). The following applies: Erigeron canadensis, post-emergence, 504 h, ERICA, postemergence, read-out: Control/Injury; for pest or weed control at 140 g/ha: rate 140 g ae/ha; for pest or weed control at 280 g/ha: rate 280 g ae/ha. The gist of the method: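 Track-sprayer applications (187 L/ha, 276 kPa) of 140 or 280 g ae/ha, technical material dissolved in acetone/DMSO then diluted with crop oil and surfactant-containing solvent, to greenhouse Conyza canadensis at 2-8 leaves. After 21 days, size reduction relative to untreated plants was recorded; 3-4 randomized replicates.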

The next test concerns Kochia scoparia (KCHSC). Format: in vivo. The following applies: Bassia scoparia, post-emergence, 504 h, KCHSC, postemergence, read-out: Control/Injury; for pest or weed control at 140 g/ha: rate 140 g ae/ha; for pest or weed control at 280 g/ha: rate 280 g ae/ha. Summed up:
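Values are percent reduction in plant size against an untreated control, measured 21 days after a single postemergence spray at 140 or 280 g ae/ha (187 L/ha, 276 kPa). Treatments used 3-4 randomized complete-block replicates on 2 to 8 leaf-stage plants kept in a 25-28 °C greenhouse, with compounds in acetone/DMSO-based solvent containing crop oil and surfactant.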

Test [3] concerns Ambrosia artemisiifolia (AMBEL). Format: in vivo, Ambrosia artemisiifolia (common ragweed). The following applies: post-emergence, 504 h, AMBEL, postemergence, read-out: Control/Injury; for pest or weed control at 140 g/ha: rate 140 g ae/ha; for pest or weed control at 280 g/ha: rate 280 g ae/ha. Summed up:
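Test compounds at 140 or 280 g ae/ha were applied by track sprayer (187 L/ha, spray solution containing acetone/DMSO, isopropanol, crop oil, surfactant) to 2–8 leaf plants, 3–4 replicates. Plants were kept in a greenhouse at 25–28 °C. Size reduction was scored against untreated controls at 21 days.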

Setting [4] is: percent reduction vs untreated, 21 days after treatment.
Where [5] appears, read: R-AMAPA, percent reduction vs untreated control, 21 days after treatment.
Setting [6] is: percent reduction vs untreated control, 21 days after treatment.

Regarding `COC(=O)C(C(=O)OC)C(=O)c1c(Cl)ccc(Cl)c1OC` [Compound A-135], the pest or weed control at 140 g/ha came to 0% in the test on Amaranthus rudis (AMATA); 6% in test [1] (AMAPA); 10% in test [2]; 3% with Kochia scoparia (KCHSC) (setting [4]); 23% in test [3]. Besides, the pest or weed control at 280 g/ha turned out to be 5% in the test on Amaranthus rudis (AMATA); 10% in test [1] (AMAPA); 25% in test [2]; 3% in the test with Kochia scoparia (KCHSC) (setting [4]); 35% in test [3].
In the case of `CCCCCCNC(=O)c1c(Cl)ccc(Cl)c1OC` [Compound A-128], the pest or weed control at 140 g/ha with Amaranthus rudis (AMATA) is 3%; in test [1] (AMAPA), 3%; in test [2] (setting [4]), 3%; with Kochia scoparia (KCHSC) (setting [4]), 0%; in test [3], 3%. The pest or weed control at 280 g/ha with Amaranthus rudis (AMATA) came out at 8%; in test [1] (AMAPA) it was 5%; in test [2] (setting [4]), 5%; with Kochia scoparia (KCHSC) (setting [4]) it was 0%; in test [3] it was 5%.
For the compound `COc1c(Cl)ccc(Cl)c1C(=O)O/N=C/c1ccccc1` [Compound A-70], the pest or weed control at 140 g/ha is 52% in the test with Amaranthus rudis (AMATA); 72% in test [1] (setting [5]); 87% in test [2] (setting [6]); 73% in the test with Kochia scoparia (KCHSC); 78% in test [3]. Further, the pest or weed control at 280 g/ha turned out to be 77% in the test with Amaranthus rudis (AMATA); 78% in test [1] (setting [5]); 93% in test [2] (setting [6]); 88% with Kochia scoparia (KCHSC); 97% in test [3].
For the compound `COc1c(Cl)ccc(Cl)c1C(=O)O/N=C/c1cc(/C=N/OC(=O)c2c(Cl)ccc(Cl)c2OC)cc(/C=N/OC(=O)c2c(Cl)ccc(Cl)c2OC)c1` [Compound A-99], the pest or weed control at 140 g/ha in the test on Amaranthus rudis (AMATA) is 84%; in test [1] (AMAPA) it was 90%; in test [2], 97%; with Kochia scoparia (KCHSC) (setting [4]), 93%; in test [3], 96%. The pest or weed control at 280 g/ha with Amaranthus rudis (AMATA) is 78%; in test [1] (AMAPA), 80%; in test [2], 99%; in the test with Kochia scoparia (KCHSC) (setting [4]) it was 95%; in test [3] it was 95%.
As to `COc1c(Cl)ccc(Cl)c1C(=O)ONC(C)=O` [Compound A-68], the pest or weed control at 140 g/ha with Amaranthus rudis (AMATA) was found to be 23%; in test [1] (setting [5]), 42%; in test [2] (setting [6]) it was 8%; in the test on Kochia scoparia (KCHSC), 58%; in test [3] it was 55%. The pest or weed control at 280 g/ha in the test on Amaranthus rudis (AMATA) is 40%; in test [1] (setting [5]), 52%; in test [2] (setting [6]) it was 23%; in the test with Kochia scoparia (KCHSC), 82%; in test [3], 58%.
For `COc1c(Cl)ccc(Cl)c1C(=O)NNc1nc2ccccc2o1` [Compound A-109], the pest or weed control at 140 g/ha with Amaranthus rudis (AMATA) turned out to be 2%; in test [1] (AMAPA) it was 8%; in test [2], 3%; in the test with Kochia scoparia (KCHSC) (setting [4]), 0%; in test [3] it was 23%. The pest or weed control at 280 g/ha in the test with Amaranthus rudis (AMATA) stood at 3%; in test [1] (AMAPA), 5%; in test [2], 5%; in the test with Kochia scoparia (KCHSC) (setting [4]), 3%; in test [3], 20%.
Take `COc1c(Cl)ccc(Cl)c1C(=O)ON(Cc1ccccc1)Cc1ccccc1` [Compound A-72]: the pest or weed control at 140 g/ha in the test on Amaranthus rudis (AMATA) worked out at 63%; in test [1] (setting [5]) it was 72%; in test [2] (setting [6]), 83%; in the test on Kochia scoparia (KCHSC), 82%; in test [3] it was 82%. For the same compound, the pest or weed control at 280 g/ha in the test with Amaranthus rudis (AMATA) worked out at 74%; in test [1] (setting [5]), 83%; in test [2] (setting [6]), 92%; in the test with Kochia scoparia (KCHSC), 94%; in test [3], 98%.
For the compound `COc1c(Cl)ccc(Cl)c1C(=O)O/N=C(\N)CCCCCC/C(N)=N/OC(=O)c1c(Cl)ccc(Cl)c1OC` [Compound A-147], the pest or weed control at 140 g/ha in the test with Amaranthus rudis (AMATA) was determined as 59%; in test [1] (setting [5]), 43%; in test [2] (setting [4]) it was 50%; in the test with Kochia scoparia (KCHSC) (setting [4]), 93%; in test [3] it was 80%. The pest or weed control at 280 g/ha with Amaranthus rudis (AMATA) came out at 49%; in test [1] (setting [5]), 38%; in test [2] (setting [4]), 60%; in the test on Kochia scoparia (KCHSC) (setting [4]) it was 88%; in test [3], 81%.
As for `COc1c(Cl)ccc(Cl)c1C(=O)ONC(N)=O` [Compound A-67], the pest or weed control at 140 g/ha is 0% with Amaranthus rudis (AMATA); 13% in test [1] (setting [5]); 2% in test [2] (setting [6]); 3% in the test with Kochia scoparia (KCHSC); 3% in test [3]. Besides, the pest or weed control at 280 g/ha with Amaranthus rudis (AMATA) worked out at 2%; in test [1] (setting [5]), 10%; in test [2] (setting [6]) it was 3%; in the test with Kochia scoparia (KCHSC), 2%; in test [3] it was 3%.
With `COc1c(Cl)ccc(Cl)c1C(=O)NNc1nc(C)cs1` [Compound A-108], the pest or weed control at 140 g/ha came to 18% in the test on Amaranthus rudis (AMATA); 8% in test [1] (AMAPA); 5% in test [2]; 0% with Kochia scoparia (KCHSC) (setting [4]); 5% in test [3]. Besides, the pest or weed control at 280 g/ha in the test on Amaranthus rudis (AMATA) was 28%; in test [1] (AMAPA), 28%; in test [2], 8%; in the test with Kochia scoparia (KCHSC) (setting [4]), 3%; in test [3], 15%.
Regarding `COc1c(Cl)ccc(Cl)c1C(=O)N1CCCCO1` [Compound A-104], the pest or weed control at 140 g/ha came out at 73% in the test with Amaranthus rudis (AMATA); 45% in test [1] (AMAPA); 0% in test [2]; 3% in the test with Kochia scoparia (KCHSC) (setting [4]); 5% in test [3]. Also, the pest or weed control at 280 g/ha in the test with Amaranthus rudis (AMATA) stood at 92%; in test [1] (AMAPA), 65%; in test [2] it was 10%; in the test on Kochia scoparia (KCHSC) (setting [4]), 13%; in test [3], 15%.

These data come from patent publication US20240122179A1, “AUXINIC HERBICIDES AND METHODS OF USE THEREOF” (CORTEVA AGRISCIENCE LLC, priority 2021, published 2024).
